Source: ChEMBL document CHEMBL1201862, “PubChem BioAssay data set” (2004)
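How tested: cells in 96-well plates exposed to compound for 48 hours at five concentrations. Abbreviation: GI50, concentration required for 50% inhibition of growth.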 Active and inactive are the calls of the source. No stated cut-off is given here; in the data, active = GI50 up to about 1.1 µM and inactive = higher.

Experiments:
Test in all cases: NCI-60 cell line screen, 48 h
[1] = test system: 786-0
[2] = test system: A549
[3] = test system: COLO 205
[4] = test system: HCT-116
[5] = test system: HL-60
[6] = test system: HOP-62
[7] = test system: K562
[8] = test system: MDA-N
[9] = test system: NCI-H226
[10] = test system: NCI-H23
[11] = test system: OVCAR-5
[12] = test system: RPMI-8226
[13] = test system: SF-268
[14] = test system: SK-MEL-28
[15] = test system: SK-MEL-2
[16] = test system: SK-OV-3
[17] = test system: SNB-19
[18] = test system: SR
[19] = test system: SW-620
[20] = test system: UACC-62

Measured: GI50

CN(C)CCCN1c2ccccc2CCc2cccc([N+](=O)[O-])c21
inactive: [1] 15.3 µM | [2] 37.3 µM | [3] 17.8 µM | [4] 15.6 µM | [5] 15.5 µM | [6] 16.5 µM | [7] 15.1 µM | [8] 16.2 µM | [9] 22.6 µM | [10] 34.4 µM | [11] 28.8 µM | [12] 11.1 µM | [13] 23.5 µM | [14] 13.4 µM | [15] 26.5 µM | [16] 28.6 µM | [17] 47.2 µM | [18] 13.6 µM | [19] 17.7 µM | [20] 18.5 µM

O=C(O)c1ccccc1/C=C1/Nc2ccccc2C1=O
inactive: [1] > 100 µM | [2] > 100 µM | [3] > 100 µM | [4] 81.5 µM | [5] 64 µM | [6] > 100 µM | [7] > 100 µM | [8] > 100 µM | [9] > 100 µM | [10] > 100 µM | [11] > 100 µM | [12] > 100 µM | [13] 93.1 µM | [14] > 100 µM | [15] > 100 µM | [16] > 100 µM | [17] > 100 µM | [18] 66.5 µM | [19] 57.5 µM | [20] > 100 µM

CN(C)CCN(c1ccccn1)c1ccccn1
inactive: [1] > 100 µM | [2] > 100 µM | [3] > 100 µM | [4] > 100 µM | [5] > 100 µM | [6] > 100 µM | [7] > 100 µM | [8] > 100 µM | [9] > 100 µM | [10] > 100 µM | [11] > 100 µM | [12] > 100 µM | [13] > 100 µM | [14] > 100 µM | [15] > 100 µM | [16] > 100 µM | [17] > 100 µM | [18] > 100 µM | [19] > 100 µM | [20] > 100 µM

O=C(CSc1nc(O)nc2[nH]cnc12)Nc1ccccc1
inactive: [1] 57.5 µM | [2] > 100 µM | [3] > 100 µM | [4] 91.2 µM | [5] > 100 µM | [6] 52.8 µM | [7] 85.3 µM | [8] 57.5 µM | [9] 37.1 µM | [10] > 100 µM | [11] > 100 µM | [12] > 100 µM | [13] 69.2 µM | [14] > 100 µM | [15] > 100 µM | [16] > 100 µM | [17] > 100 µM | [18] 51.6 µM | [19] 66.4 µM | [20] 80.7 µM
